Structures can show the parent of a compound that is named as a salt.
tested on: AML cell-line MV4-11 (FLT3-ITD); experiment: Viability and proliferation assay in AML cell line MV4-11; type: cell-based; details: Homo sapiens; MV4-11 cells, 72 hours, viable cells by flow cytometry; read-out: Cell data MV4-11 (nM), EC50 values determined in AML-cell line
Procedure: AML cell-line MV4-11 carries the FLT3-internal tandem duplication. This cell-line has been widely used for evaluating the effect of FLT3-kinase inhibitors on viability and proliferation.
Briefly, cells are seeded at a low density into 96-well plates. Serial dilution of compounds is added and the cells are incubated for 72 hours. Total number of viable cells is measured using flow cytometry at the end of treatment, and the effect of the compounds is calculated as % inhibition compared to vehicle treated cells.
All cells were cultured under standard cell culture conditions, at 37° Celsius in an atmosphere of 5% CO2 in 90% humidity.
AML-cell line MV4-11 was cultured in DMEM Glutamax high glucose ([…] glucose) supplemented with 10% Fetal Bovine Serum (FBS) from Invitrogen. Cells were subcultured twice weakly, growing to a density of approx 2 million cells per ml prior to subcultivation.
For viability determination, 3000-5000 cells were seeded in 50 microliter culture medium into a 96-well plate. Serial dilutions 1:3 of compounds from 10 mM DMSO stock were made in serumfree culture medium supplemented with penicillin and streptomycin. 50 microliter of the serial dilutions were added to the cell-suspension. The final concentration of compounds was from 5 micromolar to 0.8 nM, or from 500 nM to 0.08 nM respectively. The DMSO concentration was kept constant at 0.05%.
At the end of the treatment, 100 microliter viability reagent (Guava ViaCount) was added to each well and number of cells and viability was determined using flow cytometry (Guava 96-well ViaCount assay). Typically the vehicle treated (0.05% DMSO) cell-line cells had doubled three times during the experiment.
% Survival was calculated compared to the vehicle treated cells at the end of experiment. EC50 values were determined using the equation (A+((B−A)/(1+((C/x)^D)))) where A equals min, B equals max, C equals EC50 and D equals Hill slope.

EC50	Structure (SMILES)
184 nM	Nc1ncc(-c2ccncc2)nc1NCCc1c[nH]c2ccccc12 [Example 15, N3-[2-(1H-Indol-3-yl)ethyl]-5-pyridin-4-ylpyrazine-2,3-diamine, trifluoroacetate]
373 nM	c1cc(-c2cncc(Nc3ccc4cc[nH]c4c3)n2)ccn1 [Example 32, N-(6-Pyridin-4-ylpyrazin-2-yl)-1H-indol-6-amine]

Structure (SMILES)	EC50
NC(=O)c1ccc(-c2cncc(N[C@H]3CC[C@H](O)CC3)n2)cc1 [Example 28, 4-{6-[(trans-4-Hydroxycyclohexyl)amino]pyrazin-2-yl}benzamide, trifluoroacetate]	178 nM

biological target: T1, recombinant human FLT3 (Homo sapiens, UniProt P36888); experiment: In vitro FLT3 kinase assay (IMAP fluorescence polarization); type: biochemical; details: mean, n = 4-8; ATP 100 μM; FAM-CSKtide 100 nM; read-out: IC50 (nM), typical mean IC50 values determined in the FLT3 kinase assay
T1 construct: N-terminal GST tagged, amino acids 564-end; GST (N); purchased Upstate 14-500
T1 sequence (P36888 564-993 limits assumed): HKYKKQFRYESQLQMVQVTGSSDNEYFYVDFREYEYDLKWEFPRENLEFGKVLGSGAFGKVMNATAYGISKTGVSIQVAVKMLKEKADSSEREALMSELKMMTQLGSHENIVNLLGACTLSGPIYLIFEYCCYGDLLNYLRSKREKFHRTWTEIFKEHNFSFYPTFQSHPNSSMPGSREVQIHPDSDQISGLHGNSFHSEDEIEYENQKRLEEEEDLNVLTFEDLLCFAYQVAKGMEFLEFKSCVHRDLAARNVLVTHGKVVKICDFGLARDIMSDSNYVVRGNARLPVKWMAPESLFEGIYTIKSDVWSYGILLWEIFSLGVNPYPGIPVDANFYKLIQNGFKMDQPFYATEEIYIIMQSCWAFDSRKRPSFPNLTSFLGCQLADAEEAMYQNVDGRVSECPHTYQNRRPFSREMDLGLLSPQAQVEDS
Procedure: The compounds according to the invention were evaluated for their inhibition of FLT3 by the following method:
In Vitro FLT3 Kinase Assay
An enzyme inhibition assay for the tyrosine kinase domain of FLT3 was established using a fluorescence polarization technique, Immobilized Metal Ion Affinity-Based Fluorescence Polarization (IMAP) from Molecular Devices.
Briefly: kinase activity is measured by incubating a fluorescent peptide substrate with the kinase domain. After completion of the kinase reaction a binding buffer is added. Upon phosphorylation of the substrate, the fluorescent peptide gains the ability to bind to a metal-coated nanoparticle. When the substrate is bound to the nanoparticle, the rotational is speed of the peptide is reduced, and thus the fluorescence polarization (fp) becomes high. Compounds inhibiting the kinase activity of the enzyme will result in a low degree of phosphorylated substrate and a low fp-signal.
IMAP Buffer kit with Progressive Binding System (Molecular Devices, #R8124): Reaction buffer: 10 mM Tris-HCL pH 7.2 with 10 mM MgCl2, 0.05% NaN3 and 0.01% Tween 20. Prior to use DTT was added to 1 mM DTT final concentration (complete reaction buffer).
Binding solution was prepared from buffer kit according to the manufactures recommendations. Binding Reagent was diluted 1:1500 in 40% Binding buffer A and 60% Binding buffer B.
FLT3 enzyme used was recombinant human FLT3 from Upstate (#14-500) 7.2 U/ml, N-terminal GST tagged, amino acids 564-end.
Substrate peptide used: FAM-CSKtide from Molecular Devices (#R7269) 20 μM, 5FAM-KKKKEEIYFFFG-NH2. […]
• Pipette into 96-well black ½ area plate: • 5 μl compound dilution or vehicle • 5 μl substrate peptide (400 nM) • 5 μl enzyme (0.05 U/ml) or complete reaction buffer for non specific background (NSB) • 5 μl ATP (400 μM) • Cover the plate and incubate at room temperature with gentle agitation II. […] Fluorescence Polarization analysis: • Measure fluorescein using a plate reader (Analyst AD) excitation wave length 485 and emission wave length 530, reading with integration time of 0.1 sec. […]

IC50	Structure (SMILES)
60 nM	Nc1ncc(-c2ccncc2)nc1NCCc1c[nH]c2ccccc12 [Example 15, N3-[2-(1H-Indol-3-yl)ethyl]-5-pyridin-4-ylpyrazine-2,3-diamine, trifluoroacetate]
560 nM	c1cc(-c2cncc(Nc3ccc4cc[nH]c4c3)n2)ccn1 [Example 32, N-(6-Pyridin-4-ylpyrazin-2-yl)-1H-indol-6-amine]

Structure (SMILES)	IC50
NC(=O)c1ccc(-c2cncc(N[C@H]3CC[C@H](O)CC3)n2)cc1 [Example 28, 4-{6-[(trans-4-Hydroxycyclohexyl)amino]pyrazin-2-yl}benzamide, trifluoroacetate]	159 nM
